Measured values published in patent US12486229B2, “Indole derivative and application thereof” (SHANGHAI MEDICILON INC., priority 2020, dated 2025).

What was measured:
S1P1 = molecular target: T1, S1P1 (Homo sapiens, UniProt P21453); assay: S1P1 overexpression cell activity by β-arrestin assay (U2OS-EDG1); type: cell-based; settings: U2OS-EDG1 cells
T1 construct: host or cells: U2OS (human osteosarcoma) cell line, U2OS-EDG1
Method: The following experiments were conducted to detect the activity of the compound on S1P1 overexpression cells by β-arrestin assay. [table] [table] 3. Experimental Steps Day 1: Cell Seeding Plate and Compound Treatment • (1) Firstly, the compound was diluted by a 4-fold gradient into 10 concentration points from the concentration of 10 μM in the culture plate by using NL fluid transfer system, with 2 replicates at each concentration point. • (2) Cells were resuspended by using FreeStyle™ expression medium, and the cell density was adjusted to 7,500 cells per 40 μL suspension. The samples with test concentration were added into the well of the cell culture plate, and 40 μL cell suspension was added into the corresponding well. • (3) The above cell plates were incubated overnight in a CO2 incubator with 5% (volume fraction) at 37° C. Day 2: Detection and Data Analysis • (1) The buffer solution was prepared according to the preparation method in the instructions of LiveBLAser™-fluorescence resonance energy transfer B/G loading kit. • (2) 8 μL detection reagent was added to each well, which were shaken and mixed evenly for 1 minute, centrifugated at 1,000 rpm for 10 seconds, and incubated at 23° C. in dark for 2 hours. • 3) Detection was performed by multimode reader. • 4) The PrismDemo software was used to analyze the data and fit the curve. 4. Experimental Results

[1] = test system: DSS induced ulcerative colitis in mice; assay: DSS induced ulcerative colitis in mice; type: in vivo; set-up: key to Total stool scores: sum of shape (1-3) and bleeding (1-3) levels; normal = 1 each; Colon length: unit not given here; settings: for Colon length / Colon weight / Effect on blood stool and loose stool compared with model group: day 9; for Colon weight compared with model group: P<0.05
Method: Molecular weight of DSS dextran sodium sulfate: 36,000 to 50,000, From MP Biomedical Company.
Preparation of molding agent: preparation of 3.5% DSS: 49 g DSS plus 1,400 mL high-temperature sterilized water.
Source of SPF male C57BL/6 mice: Beijing Weitong Lihua Experimental Animal Technology Co., Ltd. • Animal age at the beginning of the experiment: 6 to 8 weeks; • Animal weight at the beginning of the experiment: 22 to 25 g; • Adaptation time: 3 to 5 days;
The mice were divided into groups according to their weight, 10 mice in each group. The mice were administrated once a day by gavage (or blank) according to the following Table 4.
Animals were given 3.5% DSS solution for free drinking water modeling (the day of modeling was recorded as day 1), and the modeling agent was replaced once every two days for 7 consecutive days, and then (day 8) 3.5% DSS was replaced with ordinary drinking water for another 1 day.
• Preparation of solvent 1: 0.66 mL DMSO, 1.32 mL Solutol and 11.22 mL Saline were mixed to prepare 13.2 mL of solvent 1; • Preparation of solvent 2: 0.3 mL DMSO, 0.6 mL Solutol and 5.1 mL Saline were mixed to prepare 6 mL of solvent 2; • Preparation of solution of compound of Example 3: 39.6 mg of compound of Example 3 was dissolved in 13.2 mL of solvent 1 to obtain the solution of compound 1 of Example 3, the solution 1 of compound of Example 3 was diluted with solvent 1 to prepare the solution of compound of Example 3 with concentrations of 2 mg/mL, 1 mg/mL, and 0.6 mg/mL; • Etrasimod solution: 6 mg of Etrasimod was dissolve in 6 mL of solvent 2 to obtain Etrasimod solution; • Ozanimod solution: 12 mg of […] was dissolved in 6 mL solvent 2 to obtain Ozanimod solution; • Note: Prepare once every two days, and store in refrigerator at 4° C.
Wherein, the purity of compound of Example 3 was 99.74%, Ozanimod and Etrasimod were prepared by the method described in Example 8, and the purities were 99.78% and 98.47% respectively.
The mouse stool was observed on its shape, bleeding condition every two days, and scored. Scoring criteria for stool condition: shape: normal (level 1), soft stool (level 2), and loose stool (level 3); traits: normal (level 1), faint redness (level 2), and bloody stool visible to the unaided eye (level 3).
After the last administration (8 consecutive days), the animals were dissected on the next day (day 9), the colon was separated, the whole colon was photographed, and the colon length was measured. Then the colon was cut longitudinally along the mesenteric side to remove the contents, which was weighed and observed on the integrity of the colonic mucosa. The colon was then fixed in 10% formalin.

[2] = 6 mg/kg oral gavage once a day for 8 days
[3] = 10 mg/kg oral gavage once a day for 8 days
[4] = 20 mg/kg oral gavage once a day for 8 days
[5] = 30 mg/kg oral gavage once a day for 8 days
[6] = Day 1, 10 mg/kg oral gavage once a day
[7] = Day 2, 10 mg/kg oral gavage once a day
[8] = Day 3, 10 mg/kg oral gavage once a day
[9] = Day 4, 10 mg/kg oral gavage once a day
[10] = Day 5, 10 mg/kg oral gavage once a day
[11] = Day 6, 10 mg/kg oral gavage once a day
[12] = Day 7, 6 mg/kg oral gavage once a day
[13] = Day 7, 10 mg/kg oral gavage once a day
[14] = Day 7, 20 mg/kg oral gavage once a day
[15] = Day 7, 30 mg/kg oral gavage once a day
[16] = Day 8, 6 mg/kg oral gavage once a day
[17] = Day 8, 10 mg/kg oral gavage once a day
[18] = Day 8, 20 mg/kg oral gavage once a day
[19] = Day 8, 30 mg/kg oral gavage once a day
[20] = Day 9, 6 mg/kg oral gavage once a day
[21] = Day 9, 10 mg/kg oral gavage once a day
[22] = Day 9, 20 mg/kg oral gavage once a day
[23] = Day 9, 30 mg/kg oral gavage once a day

T1 sequence (P21453 whole entry): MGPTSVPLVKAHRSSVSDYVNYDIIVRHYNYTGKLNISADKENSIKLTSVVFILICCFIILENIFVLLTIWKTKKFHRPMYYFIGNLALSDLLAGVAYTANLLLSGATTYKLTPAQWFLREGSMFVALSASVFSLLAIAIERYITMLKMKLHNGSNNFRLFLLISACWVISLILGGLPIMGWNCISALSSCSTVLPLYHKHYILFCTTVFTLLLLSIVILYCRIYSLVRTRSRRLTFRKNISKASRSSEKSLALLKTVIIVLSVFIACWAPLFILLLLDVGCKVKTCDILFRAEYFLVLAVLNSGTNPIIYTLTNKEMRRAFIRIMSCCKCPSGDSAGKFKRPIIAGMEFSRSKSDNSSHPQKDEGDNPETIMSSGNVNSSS

In the case of `O=C(O)CCn1ccc2cc(OCc3ccc(C4CCCC4)c(C(F)(F)F)c3)cc(Cl)c21` [Compound of Example 3, 3-(7-chlorine-5-((4-cyclopentyl-3-(trifluoromethyl)benzyl)oxy)-1H-indole-1-yl)propionic acid], the IC50 (S1P1) is reported as 0.148 nM, the Colon length [1, 2] is reported as 39.061 ± 1.17 and the Colon weight [1, 2] is reported as 0.164 ± 0.01 g. The “Colon weight compared with model group” value ([1]; 6 mg/kg) was “statistically significant difference compared with that of the model group”, the “Effect on blood stool and loose stool compared with model group” value (shortened to “Effect … compared with model group”) ([1]; 6 mg/kg) was “significantly improving blood stool and loose stool” and the Colon length [1, 3] was 39.638 ± 0.76. The Colon weight [1, 3] was 0.164 ± 0.01 g, the “Colon weight compared with model group” value ([1]; 10 mg/kg) was “statistically significant difference compared with that of the model group” and the “Effect … compared with model group” value ([1]; 10 mg/kg) was “significantly improving blood stool and loose stool”. For the same molecule, the “Colon length compared with model group” value ([1]; 20 mg/kg) was “longer than that of the model group”, the Colon length [1, 4] was 44.892 ± 1.83 and the Colon weight [1, 4] was 0.163 ± 0.01 g. For the same molecule, the “Colon weight compared with model group” value ([1]; 20 mg/kg) was “statistically significant difference compared with that of the model group”, the “Effect … compared with model group” value ([1]; 20 mg/kg) was “significantly improving blood stool and loose stool” and the “Colon length compared with model group” value ([1]; 30 mg/kg) was “longer than that of the model group”. For the same molecule, the Colon length [1, 5] was 41.311 ± 1.25, the Colon weight [1, 5] was 0.162 ± 0.01 g and the “Effect … compared with model group” value ([1]; 30 mg/kg) was “significantly improving blood stool and loose stool”. The Weight ([1]; Day 1, 6 mg/kg oral gavage once a day) was 21.3 ± 0.26 g, the Weight [1, 6] was 21.9 ± 0.2 g and the Weight ([1]; Day 1, 20 mg/kg oral gavage once a day) was 21.2 ± 0.34 g. It also gave a Weight ([1]; Day 1, 30 mg/kg oral gavage once a day) of 21.5 ± 0.17 g, a Weight ([1]; Day 2, 6 mg/kg oral gavage once a day) of 21.5 ± 0.27 g and a Weight [1, 7] of 22.1 ± 0.2 g. The Weight ([1]; Day 2, 20 mg/kg oral gavage once a day) was 21.7 ± 0.29 g, the Weight ([1]; Day 2, 30 mg/kg oral gavage once a day) was 21.9 ± 0.17 g and the Weight ([1]; Day 3, 6 mg/kg oral gavage once a day) was 21.1 ± 0.3 g. The Weight [1, 8] was 21.4 ± 0.32 g, the Weight ([1]; Day 3, 20 mg/kg oral gavage once a day) was 21.5 ± 0.33 g and the Weight ([1]; Day 3, 30 mg/kg oral gavage once a day) was 21.4 ± 0.34 g. For the same molecule, the Weight ([1]; Day 4, 6 mg/kg oral gavage once a day) was 20.9 ± 0.47 g, the Weight [1, 9] was 21.3 ± 0.46 g and the Weight ([1]; Day 4, 20 mg/kg oral gavage once a day) was 21.8 ± 0.34 g. It also gave a Weight ([1]; Day 4, 30 mg/kg oral gavage once a day) of 21.1 ± 0.4 g, a Weight ([1]; Day 5, 6 mg/kg oral gavage once a day) of 21.1 ± 0.25 g and a Weight [1, 10] of 21.0 ± 0.6 g. The Weight ([1]; Day 5, 20 mg/kg oral gavage once a day) was 21.5 ± 0.33 g, the Weight ([1]; Day 5, 30 mg/kg oral gavage once a day) was 21.1 ± 0.39 g and the Weight ([1]; Day 6, 6 mg/kg oral gavage once a day) was 20.5 ± 0.25 g. For the same molecule, the Weight [1, 11] was 20.4 ± 0.45 g, the Weight ([1]; Day 6, 20 mg/kg oral gavage once a day) was 20.3 ± 0.48 g and the Weight ([1]; Day 6, 30 mg/kg oral gavage once a day) was 20.1 ± 0.58 g. For the same molecule, the Total stool scores [1, 12] was 5.6 ± 0.17, the Weight [1, 12] was 19.2 ± 0.23 g and the Total stool scores [1, 13] was 5.7 ± 0.22. The Weight [1, 13] was 19 ± 0.46 g, the Total stool scores [1, 14] was 5.7 ± 0.21 and the Weight [1, 14] was 19 ± 0.46 g. For the same molecule, the Total stool scores [1, 15] was 5.4 ± 0.32, the Weight [1, 15] was 19.5 ± 0.52 g and the Total stool scores [1, 16] was 5.9 ± 0.11. It also gave a Weight [1, 16] of 18.1 ± 0.38 g, a Total stool scores [1, 17] of 5.7 ± 0.22 and a Weight [1, 17] of 17.8 ± 0.4 g. For the same molecule, the Total stool scores [1, 18] was 5.9 ± 0.11, the Weight [1, 18] was 17.4 ± 0.58 g and the Total stool scores [1, 19] was 5.6 ± 0.23. It also gave a Weight [1, 19] of 18.4 ± 0.51 g, a Total stool scores [1, 20] of 4.6 ± 0 and a Weight [1, 20] of 16.3 ± 0.33 g. It also gave a Total stool scores [1, 21] of 4.8 ± 0.26, a Weight [1, 21] of 16.2 ± 0.3 g and a Total stool scores [1, 22] of 4.8 ± 0.31. It also gave a Weight [1, 22] of 16.5 ± 0.4 g, a Total stool scores [1, 23] of 4.6 ± 0.39 and a Weight [1, 23] of 17.2 ± 0.48 g. For the same molecule, the “Effect on colon atrophy” value ([1]; oral gavage for 8 consecutive days, 6-30 mg/kg) was “certain inhibitory effect on colon atrophy”.
`O=C(O)C[C@H]1CCc2c1[nH]c1ccc(OCc3ccc(C4CCCC4)c(C(F)(F)F)c3)cc21` [Etrasimod, reference compound] was tested, and the IC50 (S1P1) was 4.71 nM, the Colon weight [1, 3] was 0.169 ± 0.01 g and the “Colon weight compared with model group” value ([1]; 10 mg/kg) was “statistically significant difference compared with that of the model group”. The “Effect … compared with model group” value ([1]; 10 mg/kg) was “had not significant improvement”, the Weight [1, 6] was 21.0 ± 0.26 g and the Weight [1, 7] was 21.6 ± 0.24 g. The Weight [1, 8] was 21.4 ± 0.25 g, the Weight [1, 9] was 21.7 ± 0.29 g and the Weight [1, 10] was 21.2 ± 0.27 g. The Weight [1, 11] was 20.5 ± 0.22 g, the Total stool scores [1, 13] was 6.0 ± 0 and the Weight [1, 13] was 19.2 ± 0.26 g. It also gave a Total stool scores [1, 17] of 5.9 ± 0.11, a Weight [1, 17] of 18.0 ± 0.3 g and a Total stool scores [1, 21] of 5.6 ± 0. For the same molecule, the Weight [1, 21] was 16.6 ± 0.26 g.
